Bridge positions count the residues as written; N and C are the ends. Square brackets hold non-standard residues; d marks the D form. Peptide text beside a SMILES is read from it. * marks the point of attachment. X1 = CC[C@H](C)CCCCC(=O)*; Dab = NCC[C@H](N)C(=O)O
System: resistant-OMVs
Assay: Three-state model fit to SPR titration, resistant-OMVs
Type: binding, E. coli
Conditions: resistant-OMV
From the text: To estimate binding constants, the three-state model was fit to binding curve titrations (Fig. 5A, B, and Table 2). Briefly, the SPR response curves of polymyxin B binding wt-OMVs (Fig. 5A) or resistant OMVs (Fig. 5B) were globally fit to Eqn. (1) by non-linear regression coupled to numerical integration of the associated ordinary differential equations (see Supplementary Information Section 2A), which define the time-dependent concentrations of each species.1 Response(t)=([PMBL]t+[nPMBL]t+2*[tPMB]t+m.[cPMB]t).MW.G.
Section 2A - Formulation of three-state model for fitting SPR data
The three-state model (Fig. 4) was formulated as a set of coupled ordinary differential equations (ODEs), with eight binding rate constants (k1-8) governing the rates of interchange of each species.
Forward rate constants k7 and k9 were eliminated from the equation set as formation of transient species tPMB and LL are irreversible.
Time at Injection 1 start = 0 s
Sample contact time = 30 s
Dissociation time interval = 35 s
Mass transport rate = kt = 46.5 1/s
Initial Species Concentrations
Coupled ODEs of Three-State Model d[L]/dt = -(k1.[PMB].[L] - k2.[PMBL])+2*k10.[LL] (S8) d[PMB]/dt = -(k1.[PMB].[L] - k2.[PMBL]) + kt’.([PMBi](t) –[PMB]) (S9) d[PMBL]/dt = (k1.[PMB]*[L] - k2.[PMBL])-(k3.[PMBL].[n] - k4.[nPMBL] ) (S10) d[n]/dt = -(k3.[PMBL].[n] - k4.[nPMBL] ) (S11) d[nPMBL]/dt = (k3.[PMBL].[n] - k4.[nPMBL])-2.(k5.[nPMBL].[nPMBL] - k6.[tPMB].[LL] ) (S12) d[tPMB]/dt = (k5.[nPMBL].[nPMBL] - k6.[tPMB].[LL] ) – k8.[tPMB] (S13) d[cPMB]/dt = 2*k8.[tPMB] (S14) d[LL]/dt = (k5.[nPMBL].[nPMBL] – k6.[tPMB].[LL]) – k10.[LL] (S15)
The initial concentrations of each species were as follows
[PMB]t=0 = [PMBL]t=0 = [nPMBL]t=0 = [tPMB]t=0 = [LL]t=0 = [cPMB]t=0 = 0 [L]t=0 = [n]t=0 = 1.56 x 10-4 (units, M) kt’ (units, m/s) was already defined in SI Section 1A. [PMBi](t) is the injected concentration profile and [PMB]t is the concentration profile at the sensing surface. [PMBi](t) follows a serial-doubling concentration of injected analyte, with a concentration profile defined by a serial step function, where each injection step represents a discrete concentration followed by a dissociation step without injected analyte and this is repeated for each concentration in the SCK dosing series.
Kintek Explorer V9.5 was used to build and fit the three-state model. This program employs its own numerical integrator9, which reports the change in concentration of each species over time.
The SPR responses for concentrations of each accumulating PMB-species estimated from Eqn (8 - 15) are summed over time in Eqn (1), repeated here.
Response(t) = ([PMBL]t+[nPMBL]t+2*[tPMB]t+m.[cPMB]t).MW.G. Eqn (1)
The concentration of [tPMB]t is multiplied by two to account for its additional mass, being composed of two PMB molecules. […]

How did the k3 (first two states, max 625 nM) turn out when `CC[C@H](C)CCCCC(=O)N[C@@H](CCN)C(=O)N[C@H](C(=O)N[C@@H](CCN)C(=O)N[C@H]1CCNC(=O)[C@H]([C@@H](C)O)NC(=O)[C@H](CCN)NC(=O)[C@H](CCN)NC(=O)[C@H](CC(C)C)NC(=O)[C@@H](Cc2ccccc2)NC(=O)[C@H](CCN)NC1=O)[C@@H](C)O` [Polymyxin B] (X1-[Dab]T[Dab][Dab][Dab][dF]L[Dab][Dab]T; lactam 4-C (inferred); N-terminus assumed) was run?
Its k3 is 335 M⁻¹ s⁻¹.

What about the k4 (first two states, max 625 nM) of the same compound?
Its k4 is 0.0085 s⁻¹.

What about the Kd (fitted, first two states, max 625 nM, read-out: KD = k2/k1) of the same compound?
The Kd was 0.268 µM.

What about the kt (mass transport rate) of the same compound?
The kt was 44.6 ms^−1.

From article PMC11148078, “Potent activity of polymyxin B is associated with long-lived super-stoichiometric accumulation mediated by weak-affinity binding to lipid A” (Nature Communications, 2024)
